According to paper PMC6199744, “Development of Chemical Proteomics for the Folateome and Analysis of the Kinetoplastid Folateome” (ACS Infectious Diseases, 2018):
Values joined by “and” are separate entries in the source; they are usually repeats but may differ in a detail not shown here. Equal values may be shown once. Read-outs that look alike come from different tables or passages of the source.

Tested on: T. brucei lysate proteins
Assay type: binding, Trypanosoma brucei

SMILES: CCCCCCOc1cccc(Cc2cnc(N)nc2N)c1 [compound 2]
- fold change - vehicle control: 1 and 0.55 and 0.88 and 0.98 and 0.99
- fold change - vehicle control (protein RHS6A (CZT00028360.1)): 0.94
- fold change - vehicle control (protein TB09.160.1250 HY[…], CONSERVED): 0.96
- fold change - vehicle control (protein TB09.160.3670 RIBOSOMAL PROTEIN S6, PUTATIVE): 0.84
- fold change - vehicle control (protein TB09.211.2630 60S RIBOSOMAL PROTEIN L23, PUTATIVE): 1.12
- fold change - vehicle control (protein TB09.211.4513 KIN[…] PROTEIN KMP-11): 0.9
- fold change - vehicle control (protein TB11.V4.0005 RIBONUCLEOSIDE-DIPHOSPHATE REDUCTASE SMALL CHAIN): 0.86
- fold change - vehicle control (protein TB11.01.0870 R[…] A, 51KDA SUBUNIT, PUTATIVE): 1.05
- fold change - vehicle control (protein TB11.01.2560 40S RIBOSOMAL PROTEIN SA, PUTATIVE): 1.05
- fold change - vehicle control (protein TB11.01.4880 HY[…], CONSERVED): 0.89
- fold change - vehicle control (protein TB11.01.7090 HY[…], CONSERVED): 0.9
- fold change - vehicle control (protein TB11.02.2510 GUANINE NUCLEOTIDE-BINDING BETA SUBUNIT-LIKE PROTEIN): 0.96
- fold change - vehicle control (protein TB11.02.4170 40S RIBOSOMAL PROTEIN S5, PUTATIVE): 1.39
- fold change - vehicle control (protein TB11.03.0250 C[…]): 1.72
- fold change - vehicle control (protein TB11.46.0009 HY[…], CONSERVED): 1.02
- fold change - vehicle control (protein TB427TMP.01.0620 HY[…], CONSERVED): 0.96
- fold change - vehicle control (protein TB427TMP.01.1475 40S RIBOSOMAL PROTEIN S27, PUTATIVE): 1.03
- fold change - vehicle control (protein TB427TMP.01.4280 HY[…], CONSERVED): 0.85
- fold change - vehicle control (protein TB427TMP.01.4650 HY[…], CONSERVED): 1.21
- fold change - vehicle control (protein TB427TMP.01.4810 HY[…], CONSERVED): 0.93
- fold change - vehicle control (protein TB427TMP.01.5680 HY[…], CONSERVED): 0.97
- fold change - vehicle control (protein TB427TMP.01.8390 HY[…], CONSERVED): 0.8
- fold change - vehicle control (protein TB427TMP.02.0230 HY[…], CONSERVED): 1.22
- fold change - vehicle control (protein TB427TMP.02.0460 NUCLEOPORIN): 0.88
- fold change - vehicle control (protein TB427TMP.02.1106 NUCLEOBASE/NUCLEOSIDE TRANSPORTER 8 1): 1.35
- fold change - vehicle control (protein TB427TMP.160.2050 ENDO-BETA-N-ACETYLGLUCOSAMINIDASE, PUTATIVE): 0.89
- fold change - vehicle control (protein TB427TMP.160.4310 GLUTAMATE DEHYDROGENASE): 0.49
- fold change - vehicle control (protein TB427TMP.160.4450 40S RIBOSOMAL PROTEIN S3, PUTATIVE): 1.06
- fold change - vehicle control (protein TB427TMP.160.4630 HY[…], CONSERVED): 0.91
- fold change - vehicle control (protein TB427TMP.160.5200 HY[…], CONSERVED): 0.86
- fold change - vehicle control (protein TB427TMP.160.5670 HY[…], CONSERVED): 0.81
- fold change - vehicle control (protein TB427TMP.211.0930 POLYADENYLATE-BINDING PROTEIN 1): 1.27
- fold change - vehicle control (protein TB427TMP.211.1750 MIT[…] PROTEIN, PUTATIVE): 0.97
- fold change - vehicle control (protein TB427TMP.211.3510 ATP-DEPENDENT DEAD/H RNA HELICASE, PUTATIVE): 0.96
- fold change - vehicle control (protein TB427TMP.211.4540 RNA-BINDING PROTEIN, PUTATIVE): 0.6
- fold change - vehicle control (protein TB427TMP.244.2840 HY[…], CONSERVED): 1
- fold change - vehicle control (protein TB427.01.1240 CYTIDINE TR[…], PUTATIVE): 0.8
- fold change - vehicle control (protein TB427.01.2570 COATOMER BETA SUBUNIT): 0.82
- fold change - vehicle control (protein TB427.01.3910 HY[…], CONSERVED): 0.61
- fold change - vehicle control (protein TB427.02.450 RETRO[…] SPOT (RHS) PROTEIN, PUTATIVE): 0.84
- fold change - vehicle control (protein TB427.04.3350 HY[…], CONSERVED): 1.08
- fold change - vehicle control (protein TB427.04.3890 ATP-DEPENDENT RNA HELICASE, PUTATIVE): 0.83
- fold change - vehicle control (protein TB427.04.4870 AMINO ACID TRANSPORTER, PUTATIVE): 1.02
- fold change - vehicle control (protein TB427.04.750 50S RIBOSOMAL PROTEIN L7AE, PUTATIVE): 0.95
- fold change - vehicle control (protein TB427.04.960 HY[…], CONSERVED): 0.72
- fold change - vehicle control (protein TB427.05.1490 HY[…], CONSERVED): 0.95
- fold change - vehicle control (protein TB427.05.1780 HY[…], CONSERVED): 0.73
- fold change - vehicle control (protein TB427.05.3030 INTR[…] PROTEIN IFT122, PUTATIVE): 0.96
- fold change - vehicle control (protein TB427.06.3110 PROTEIN KINASE, PUTATIVE (CRK11)): 0.94
- fold change - vehicle control (protein TB427.06.5110 DAMAGE-SPECIFIC DNA BINDING PROTEIN, PUTATIVE): 0.9
- fold change - vehicle control (protein TB427.07.2670 HY[…], CONSERVED): 0.98
- fold change - vehicle control (protein TB427.07.3040 HY[…], CONSERVED): 0.96
- fold change - vehicle control (protein TB427.07.3530 HY[…], CONSERVED): 0.91
- fold change - vehicle control (protein TB427.07.4970 GLUTAMINE SYNTHETASE, PUTATIVE): 0.92
- fold change - vehicle control (protein TB427.07.5560 GLUCOSAMINE-FRUCTOSE-6-PHOSPHATE AMINOTRANSFERASE, PUTATIVE): 0.87
- fold change - vehicle control (protein TB427.07.5890 HY[…], CONSERVED): 0.8
- fold change - vehicle control (protein TB427.07.7070 HY[…], CONSERVED): 0.79
- fold change - vehicle control (protein TB427.07.7460 HY[…], CONSERVED): 0.98
- fold change - vehicle control (protein TB427.08.1500 HY[…], CONSERVED): 0.94
- fold change - vehicle control (protein TB427.08.1840 HY[…], CONSERVED): 0.7
- fold change - vehicle control (protein TB427.08.1960 HY[…], CONSERVED): 0.83
- fold change - vehicle control (protein TB427.08.2080 HY[…], CONSERVED): 0.75
- fold change - vehicle control (protein TB427.08.3750 NUCLEOLAR PROTEIN, PUTATIVE): 1.04
- fold change - vehicle control (protein TB427.08.6390 LYSOPHOSPHOLIPASE, PUTATIVE): 0.97
- fold change - vehicle control (protein TB427.10.10610 PROTEIN TYROSINE PHOSPHATASE, PUTATIVE): 0.94
- fold change - vehicle control (protein TB427.10.1100 60S RIBOSOMAL PROTEIN L9, PUTATIVE): 1.08
- fold change - vehicle control (protein TB427.10.12740): 0.97
- fold change - vehicle control (protein TB427.10.15720 […]-ATP-ASE SUBUNIT 9): 0.81
- fold change - vehicle control (protein TB427.10.2440 METACASPASE MCA4): 0.88
- fold change - vehicle control (protein TB427.10.2900 IMPORTIN BETA-1 SUBUNIT, PUTATIVE): 0.94
- fold change - vehicle control (protein TB427.10.3470 HY[…], CONSERVED): 0.79
- fold change - vehicle control (protein TB427.10.4110 60S RIBOSOMAL PROTEIN L30): 0.93
- fold change - vehicle control (protein TB427.10.4610 […]-MANNOSE SYNTHASE, PUTATIVE): 0.93
- fold change - vehicle control (protein TB427.10.5250 HY[…], CONSERVED): 0.89
- fold change - vehicle control (protein TB427.10.5840 T[…] 1-BETA, PUTATIVE): 0.85
- fold change - vehicle control (protein TB427.10.7410 SUCCINYL-COA LIGASE GDP-FORMING] BETA-CHAIN, PUTATIVE): 0.76
- fold change - vehicle control (protein TB927.10.12960 RAS-RELATED PROTEIN RAB-5): 1.03
- fold change - vehicle control (protein TB927.10.14800 PROTEIN KINASE, PUTATIVE): 1.13
- fold change - vehicle control (protein TB927.10.2980 […]-ATPASE SUBUNIT 11): 1.09
- fold change - vehicle control (protein TB927.10.3660 ASPARTATE AMINOTRANSFERASE): 1.09
- fold change - vehicle control (protein TB927.10.4570 […] 2): 0.79
- fold change - vehicle control (protein TB927.10.5140 PROTEIN KINASE, PUTATIVE): 0.91
- fold change - vehicle control (protein TB927.10.6510 CHAPERONIN HSP60, MIT[…]): 0.96
- fold change - vehicle control (protein TB927.3.1840 3-OXO-5-ALPHA-STEROID 4-DEHYDROGENASE, PUTATIVE): 1.16
- fold change - vehicle control (protein TB927.3.3780 TRYPAREDOXIN): 0.92
- fold change - vehicle control (protein TB927.3.740 HY[…], CONSERVED): 0.95
- fold change - vehicle control (protein TB927.4.2740 HY[…], CONSERVED): 0.85
- fold change - vehicle control (protein TB927.4.3590 T[…] 1-BETA, PUTATIVE): 0.81
- fold change - vehicle control (protein TB927.6.4320 HY[…], CONSERVED): 0.98
- fold change - vehicle control (protein TB927.7.2550 […] SUBUNIT 5): 0.92
- fold change - vehicle control (protein TB927.7.2980 HY[…], CONSERVED): 0.88
- fold change - vehicle control (protein TB927.7.5340 HY[…], CONSERVED): 1.48
- fold change - vehicle control (protein TB927.7.7430 ATP SYNTHASE ALPHA CHAIN, MIT[…]): 0.92
- fold change - vehicle control (protein TB927.8.1990 PEROXIDOXIN): 1.04
- fold change - vehicle control (protein TB927.8.4720 AMINO ACID TRANSPORTER, PUTATIVE): 1.06
